From patent US20250289813A1, “CDK INHIBITORS, PHARMACEUTICAL COMPOSITIONS, AND THERAPEUTIC APPLICATIONS” (ONQUALITY PHARMACEUTICALS CHINA LTD., priority 2022, published 2025)
pEC50, pIC50: −log10 of the molar value.

Columns and labels:
[1] = tested on: MCF-7 human breast cancer cells; assay: CELLTITER-GLO luminescent cell viability assay; assay type: cell-based; conditions: MCF7, 192 h, MCF-7 cells, 8 days, read-out: EC50 (Effect on Cell Viability)
Description: A CELLTITER-GLO luminescent cell viability assay was carried out using MCF-7 human breast cancer cells under the normal growth condition. The MCF-7 human breast cancer cells were grown at 37° C. in a 5% CO2 humidified incubator in EMEM, supplemented 10% FBS, 0.01 mg/mL bovine insulin. The cells were seeded at a 3,000 cells/well in a 96-well tissue culture plate. The cells were allowed to adhere overnight in the incubator. A compound (5 μL) in a medium at a predetermined concentration. After the cells was incubated at 37° C. for 8 days, a CELLTITER-GLO detection solution (100 μL) was added. The cells were mixed on an orbital shaker for 5 min and then incubated for additional 10 min. The plate was read with an ENVISION reader. The results are summarized in Table 2, where the symbol “+++” represents a value no greater than 1 μM, the symbol “++” represents a value greater than 1 μM but no greater than 10 μM, and the symbol “+” represents a value greater than 10 μM.

[2] = molecular target: CDK6/cyclin D1 (Homo sapiens (Human), UniProt Q00534); assay: CDK6 Caliper Mobility Shift assay; assay type: biochemical
Description: (§1) A Caliper Mobility Shift assay was used to determine the inhibitory activities of a compound against CDK4/cyclin D1 and CDK6/cyclin D1 in their respective kinase buffers (CDK4: 20 mM HEPES, pH 7.5, and 0.01% Triton X-100; CDK6: 50 mM HEPES, pH 7.5, and 0.0015% BRIJ-35). The CDK4/cyclin D1 and CDK6/cyclin D1 were obtained from PROQINASE and CARNA, respectively. A FAM-labeled peptide was obtained from GL.
(§2) The compound at predetermined concentrations was pre-incubated with CDK4/cyclin D1 or CDK6/cyclin D1 in a 384-well microplate at room temperature for 10 min. The FAM-labeled peptide and ATP were subsequently added to initiate the kinase reactions. The final enzyme concentrations were 15 nM for CDK4 and 7.5 nM for CDK6. The final ATP concentrations were […] for CDK4 and […] for CDK6. The microplate was allowed to incubate at 28° C. The kinase reactions were stopped by adding a stop buffer (100 mM HEPES, pH 7.5, 0.012% BRIJ-35, 0.2% Coating Reagent 3 (Caliper Life Sciences), and […]). Conversion data were recorded and utilized to calculate the percent inhibition values for each compound and an IC50 value was then determined. The results are summarized in Table 1, where the symbol “***” represents a value no greater than 200 nM, the symbol “**” represents a value greater than 200 nM but no greater than 500 nM, and the symbol “*” represents a value greater than 500 nM.

[3] = molecular target: CDK4/cyclin D1 (Homo sapiens (Human), UniProt P11802); assay: CDK4 Caliper Mobility Shift assay; assay type: biochemical
Description: as §1, §2

Sequence of CDK4/cyclin D1 (P11802 whole entry): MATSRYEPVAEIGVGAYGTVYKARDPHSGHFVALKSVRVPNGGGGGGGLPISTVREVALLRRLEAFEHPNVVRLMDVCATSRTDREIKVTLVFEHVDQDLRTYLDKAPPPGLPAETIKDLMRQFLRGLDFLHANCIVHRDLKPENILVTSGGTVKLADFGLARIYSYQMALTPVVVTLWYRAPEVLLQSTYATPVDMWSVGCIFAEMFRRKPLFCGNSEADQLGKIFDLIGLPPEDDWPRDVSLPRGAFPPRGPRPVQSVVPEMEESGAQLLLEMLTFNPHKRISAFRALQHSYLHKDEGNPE
Sequence of CDK4/cyclin D1 (P24385 whole entry partner): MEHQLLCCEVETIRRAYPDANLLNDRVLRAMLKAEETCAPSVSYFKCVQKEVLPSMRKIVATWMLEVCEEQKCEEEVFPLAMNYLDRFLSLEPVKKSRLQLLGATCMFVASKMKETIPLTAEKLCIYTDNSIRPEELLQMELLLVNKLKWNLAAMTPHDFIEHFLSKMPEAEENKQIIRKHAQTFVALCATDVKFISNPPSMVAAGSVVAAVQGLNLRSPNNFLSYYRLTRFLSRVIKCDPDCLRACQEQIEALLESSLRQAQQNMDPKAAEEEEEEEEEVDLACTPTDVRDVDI
Sequence of CDK6/cyclin D1 (Q00534 whole entry): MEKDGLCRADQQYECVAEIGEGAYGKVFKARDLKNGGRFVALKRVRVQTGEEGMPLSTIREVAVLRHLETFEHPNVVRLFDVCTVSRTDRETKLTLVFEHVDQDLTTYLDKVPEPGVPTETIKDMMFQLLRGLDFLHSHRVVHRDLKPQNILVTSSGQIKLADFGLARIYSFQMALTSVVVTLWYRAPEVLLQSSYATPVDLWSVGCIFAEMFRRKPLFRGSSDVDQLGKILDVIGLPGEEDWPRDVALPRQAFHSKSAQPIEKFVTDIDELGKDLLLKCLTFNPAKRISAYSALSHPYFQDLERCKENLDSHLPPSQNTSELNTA
Sequence of CDK6/cyclin D1 (P24385 whole entry partner): as the sequence (P24385 whole entry partner) above

Compound `CC(=O)c1c(C)c2cnc(Nc3ccc(N4CCN(S(=O)(=O)NCCO)CC4)cn3)nc2n(C2CCCC2)c1=O` [Compound A42, 4-(6-((6-Acetyl-8-cyclopentyl-5-methyl-7-oxo-7,8-dihydropyrido[2,3-d]-pyrimidin-2-yl)amino)pyridin-3-yl)-N-(2-hydroxyethyl)piperazine-1-sulfonamide] has a pEC50 [1] of 5.00 to 6.00, a pIC50 [2] of at least 6.70 and a pIC50 [3] of at least 6.70.

In the case of `CC(=O)c1c(C)c2cnc(Nc3ccc(N4CCN(S(=O)(=O)NC(=O)C5CCOCC5)CC4)cn3)nc2n(C2CCCC2)c1=O` [Compound A40, N-((4-(6-((6-Acetyl-8-cyclopentyl-5-methyl-7-oxo-7,8-dihydropyrido[2,3-d]-pyrimidin-2-yl)amino)pyridin-3-yl)piperazin-1-yl)sulfonyl)tetrahydro-2H-pyran-4-carboxamide], the pIC50 [2] was at least 6.70 and the pIC50 [3] was at least 6.70.

For `CC(=O)c1c(C)c2cnc(Nc3ccc(N4CCN(S(=O)(=O)NC(=O)OCCNC(=O)[C@@H](C)N)CC4)cn3)nc2n(C2CCCC2)c1=O` [Compound A16, (R)-2-(2-Aminopropanamido)ethyl ((4-(6-((6-acetyl-8-cyclopentyl-5-methyl-7-oxo-7,8-dihydropyrido[2,3-d]pyrimidin-2-yl)amino)pyridin-3-yl)piperazin-1-yl)sulfonyl)-carbamate], the pIC50 [2] was at least 6.70 and the pIC50 [3] was at least 6.70.

`CC(=O)c1c(C)c2cnc(Nc3ccc(N4CCN(S(=O)(=O)NC(=O)C5CCC5)CC4)cn3)nc2n(C2CCCC2)c1=O` [Compound A41, N-((4-(6-((6-Acetyl-8-cyclopentyl-5-methyl-7-oxo-7,8-dihydropyrido[2,3-d]-pyrimidin-2-yl)amino)pyridin-3-yl)piperazin-1-yl)sulfonyl)cyclobutanecarboxamide] was tested, and the pEC50 [1] was 5.00 to 6.00, the pIC50 [2] was 6.30 to 6.70 and the pIC50 [3] was 6.30 to 6.70.

Work on `CC(=O)c1c(C)c2cnc(Nc3ccc(N4CCN(S(=O)(=O)N5CCCC[C@@H]5CO)CC4)cn3)nc2n(C2CCCC2)c1=O` [Compound A7, (R)-6-acetyl-8-cyclopentyl-2-((5-(4-((2-(hydroxymethyl)piperidin-1-yl)sulfonyl)-piperazin-1-yl)pyridin-2-yl)amino)-5-methylpyrido[2,3-d]pyrimidin-7(8H)-one] yielded a pEC50 [1] of 5.00 to 6.00, a pIC50 [2] of at least 6.70 and a pIC50 [3] of at least 6.70.

`CC(=O)c1c(C)c2cnc(Nc3ccc(N4CCN(S(=O)(=O)n5ccnc5)CC4)cn3)nc2n(C2CCCC2)c1=O` [Compound A58, 2-((5-(4-((1H-Imidazol-1-yl)sulfonyl)piperazin-1-yl)pyridin-2-yl)amino)-6-acetyl-8-cyclopentyl-5-methylpyrido[2,3-d]pyrimidin-7(8H)-one] gave a pEC50 [1] of at least 6.00.

With `CC(=O)c1c(C)c2cnc(Nc3ccc(N4CCN(S(=O)(=O)C(C)C)CC4)cn3)nc2n(C2CCCC2)c1=O` [Compound C1, 6-acetyl-8-cyclopentyl-2-[[5-(4-isopropylsulfonylpiperazin-1-yl)-2-pyridyl]-amino]-5-methylpyrido[2,3-d]pyrimidin-7-one] the pIC50 [2] was at least 6.70 and the pIC50 [3] was at least 6.70.

`CC(=O)c1c(C)c2cnc(Nc3ccc(N4CCN(S(=O)(=O)N[C@H](C(=O)O)C(C)C)CC4)cn3)nc2n(C2CCCC2)c1=O` [Compound A45, ((4-(6-((6-Acetyl-8-cyclopentyl-5-methyl-7-oxo-7,8-dihydropyrido[2,3-d]-pyrimidin-2-yl)amino)pyridin-3-yl)piperazin-1-yl)sulfonyl)-L-valine] was tested, and the pEC50 [1] was 5.00 to 6.00, the pIC50 [2] was at least 6.70 and the pIC50 [3] was at least 6.70.

With `CC(=O)c1c(C)c2cnc(Nc3ccc(N4CCN(S(N)(=O)=O)CC4)cn3)nc2n(C2CCCC2)c1=O` [Compound A5, 4-(6-((6-acetyl-8-cyclopentyl-5-methyl-7-oxo-7,8-dihydropyrido[2,3-d]pyrimidin-2-yl)amino)pyridin-3-yl)-piperazine-1-sulfonamide] the pIC50 [2] was 6.30 to 6.70 and the pIC50 [3] was at least 6.70.

Work on `CC(=O)c1c(C)c2cnc(Nc3ccc(N4CCN(S(=O)(=O)OC5CCCC5)CC4)cn3)nc2n(C2CCCC2)c1=O` [Compound B4, Cyclopentyl 4-(6-((6-acetyl-8-cyclopentyl-5-methyl-7-oxo-7,8-dihydropyrido[2,3-d]pyrimidin-2-yl)amino)pyridin-3-yl)piperazine-1-sulfonate] yielded a pIC50 [2] of 6.30 to 6.70 and a pIC50 [3] of at least 6.70.

`CC(=O)c1c(C)c2cnc(Nc3ccc(N4CCN(S(=O)(=O)N(C)C)CC4)cn3)nc2n(C2CCCC2)c1=O` [Compound A50, 4-(6-((6-Acetyl-8-cyclopentyl-5-methyl-7-oxo-7,8-dihydropyrido[2,3-d]-pyrimidin-2-yl)amino)pyridin-3-yl)-N,N-dimethylpiperazine-1-sulfonamide] gave a pIC50 [2] of 6.30 to 6.70 and a pIC50 [3] of 6.30 to 6.70.

`CC(=O)c1c(C)c2cnc(Nc3ccc(N4CCN(S(=O)(=O)NC(=O)OCCNC(=O)[C@H]5CCCN5)CC4)cn3)nc2n(C2CCCC2)c1=O` [Compound A21, (R)-2-(Pyrrolidine-2-carboxamido)ethyl ((4-(6-((6-acetyl-8-cyclopentyl-5-methyl-7-oxo-7,8-dihydropyrido[2,3-d]pyrimidin-2-yl)amino)pyridin-3-yl)piperazin-1-yl)sulfonyl)-carbamate] was tested, and the pIC50 [2] was at least 6.70 and the pIC50 [3] was at least 6.70.

Compound `CC(=O)c1c(C)c2cnc(Nc3ccc(N4CCN(S(=O)(=O)NC(=O)OCCNC(=O)[C@@H](N)CC(C)C)CC4)cn3)nc2n(C2CCCC2)c1=O` [Compound A17, (S)-2-(2-Amino-4-methylpentanamido)ethyl ((4-(6-((6-acetyl-8-cyclopentyl-5-methyl-7-oxo-7,8-dihydropyrido[2,3-d]pyrimidin-2-yl)amino)pyridin-3-yl)piperazin-1-yl)-sulfonyl)carbamate] has a pIC50 [2] of at least 6.70 and a pIC50 [3] of at least 6.70.

For `CC(=O)c1c(C)c2cnc(Nc3ccc(N4CCN(S(=O)(=O)n5ccnc5N)CC4)cn3)nc2n(C2CCCC2)c1=O` [Compound A57, 6-Acetyl-2-((5-(4-((2-amino-1H-imidazol-1-yl)sulfonyl)piperazin-1-yl)pyridin-2-yl)amino)-8-cyclopentyl-5-methylpyrido[2,3-d]pyrimidin-7(8H)-one], the pIC50 [2] was at least 6.70 and the pIC50 [3] was at least 6.70.

`CC(=O)c1c(C)c2cnc(Nc3ccc(N4CCN(S(=O)(=O)NC(=O)C5CC5)CC4)cn3)nc2n(C2CCCC2)c1=O` [Compound A38, N-((4-(6-((6-Acetyl-8-cyclopentyl-5-methyl-7-oxo-7,8-dihydropyrido[2,3-d]-pyrimidin-2-yl)amino)pyridin-3-yl)piperazin-1-yl)sulfonyl)cyclopropanecarboxamide] was tested, and the pIC50 [2] was at least 6.70 and the pIC50 [3] was at least 6.70.

For `CC(=O)c1c(C)c2cnc(Nc3ccc(N4CCN(S(=O)(=O)NC(=O)OCC(=O)O)CC4)cn3)nc2n(C2CCCC2)c1=O` [Compound A11, 2-((((4-(6-((6-Acetyl-8-cyclopentyl-5-methyl-7-oxo-7,8-dihydropyrido[2,3-d]-pyrimidin-2-yl)amino)pyridin-3-yl)piperazin-1-yl)sulfonyl)carbamoyl)oxy)acetic acid], the pIC50 [2] was at least 6.70 and the pIC50 [3] was 6.30 to 6.70.

Work on `CNS(=O)(=O)N1CCN(c2ccc(Nc3ncc4c(C)c(C(C)=O)c(=O)n(C5CCCC5)c4n3)nc2)CC1` [Compound A46, 4-(6-((6-Acetyl-8-cyclopentyl-5-methyl-7-oxo-7,8-dihydropyrido[2,3-d]-pyrimidin-2-yl)amino)pyridin-3-yl)-N-methylpiperazine-1-sulfonamide] yielded a pIC50 [2] of 6.30 to 6.70 and a pIC50 [3] of at least 6.70.

With `CC(=O)c1c(C)c2cnc(Nc3ccc(N4CCN(S(=O)(=O)NC(=O)OCCNC(=O)CN)CC4)cn3)nc2n(C2CCCC2)c1=O` [Compound A20, 2-(2-Aminoacetamido)ethyl ((4-(6-((6-acetyl-8-cyclopentyl-5-methyl-7-oxo-7,8-dihydropyrido[2,3-d]pyrimidin-2-yl)amino)pyridin-3-yl)piperazin-1-yl)sulfonyl)carbamate] the pIC50 [2] was at least 6.70 and the pIC50 [3] was at least 6.70.

In the case of `CC(=O)c1c(C)c2cnc(Nc3ccc(N4CCN(S(=O)(=O)O)CC4)cn3)nc2n(C2CCCC2)c1=O` [Compound 6.1, 4-(6-((6-Acetyl-8-cyclopentyl-5-methyl-7-oxo-7,8-dihydropyrido[2,3-d]-pyrimidin-2-yl)amino)pyridin-3-yl)piperazine-1-sulfonic acid], the pIC50 [2] was 6.30 to 6.70 and the pIC50 [3] was at least 6.70.
